Values after ≈ are worked out from the molar mass of the structure shown. Like-named read-outs stand apart in the source and are kept apart here.
Assays:
[1] = tested on: NCI-60 tumor cell line panel; type: cell-based; settings: average over panel
[2] = tested on: L3.6PL Pancreatic Cancer Xenograft; test: L3.6PL Pancreatic Cancer Xenograft; settings: i.v.
[3] = tested on: MCF-7/Her-2 Breast Cancer Xenograft; settings: i.v.; doses at or below the MTD; Konopleva et al. 2006; cited from earlier work
[4] = tested on: DU-145 Prostate Cancer Xenograft; test: DU-145 Prostate Cancer Xenograft; settings: p.o.
[5] = tested on: MMP-9, TNFα, IL-8, and VEGF; test: Phase I trial, circulating inflammatory cytokines; type: in vivo, human
Procedure: Based on the known anti-inflammatory properties of CDDO-Me, circulating inflammatory cytokines were evaluated in patients in the Phase I trial. At doses as low as 5 mg/day, there was a reduction of several circulating pro-inflammatory cytokines and chemokines including MMP-9, TNFα, IL-8, and VEGF.

[6] = tested on: COX-2, iNOS, phosphorylated STAT3 (pSTAT3); test: Phase I trial, tumor biopsy data
[7] = tested on: NCI-H460 Lung Cancer Xenograft; test: NCI-H460 Lung Cancer Xenograft; settings: p.o.
[8] = Approximate solubility, solvent addition method; type: physicochemical; settings: thermodynamic from solid, room temperature
Procedure: A weighed sample was treated with aliquots of the test solvent at room temperature. Complete dissolution of the test material was determined by visual inspection. Solubility was estimated based on the total solvent used to provide complete dissolution. The actual solubility may be greater than the value calculated because of the use of solvent aliquots that were too large or due to a slow rate of dissolution. […] If complete dissolution was achieved as a result of only one aliquot addition, the solubility is expressed as “greater than.” Approximate solubilities were determined in various solvents at room temperature, with the results as provided in Table 2.

[9] = tested on: 4T1 Syngeneic Breast Cancer; settings: i.v., cited from earlier work
[10] = tested on: advanced (metastatic) cancer; test: Phase I dose-escalation trial, safety and anti-tumor activity; type: in vivo, human
Source text: Both the safety and anti-tumor activity of CDDO-Me were reviewed. In addition, the biological effects of CDDO-Me were characterized. […] Several patients (approximately 75% of evaluable patients) were considered to have stable disease (based on standard radiological and clinical criteria) at the first evaluation point following completion of the second treatment cycle. […] Five patients, including patients with melanoma and renal cell cancer, continued to show stable disease, some with evidence of regression of individual tumor lesions, after four cycles of treatment. Four patients were considered to have stable disease after at least six cycles of treatment.

[11] = Phase I trial, serum creatinine; settings: day 21
[12] = tested on: NQO1 (NAD(P)H:quinone oxidoreductase); test: Phase I trial, phase 2 gene products in peripheral blood mononuclear cells; type: in vivo, human; settings: doses of 10 mg/day and above
Source text: Additionally, phase 2 gene products, which include antioxidant and detoxification enzymes, have been monitored in peripheral blood mononuclear cells of patients in the Phase I study.

COC(=O)[C@]12CCC(C)(C)C[C@H]1[C@H]1C(=O)C=C3[C@@]4(C)C=C(C#N)C(=O)C(C)(C)[C@@H]4CC[C@@]3(C)[C@]1(C)CC2 [CDDO methyl ester, methyl 2-cyano-3,12-dioxoleana-1,9(11)-dien-28-oate]
IC50 [1]: ~35 nM | comparison with Gemcitabine [2]: CDDO-Me outperformed | DRUG ACTIVITY, TGI (Tumor Growth Inhibition) ([2]; doses at or below the MTD): 51% TGI | DRUG ACTIVITY, regression [3]: 15% regression | DRUG ACTIVITY, TGI (Tumor Growth Inhibition) ([4]; doses at or below the MTD): 77% TGI | TGI, multiple schedules tested ([4]; multiple schedules): 60-77% | circulating TNFα ([5]; 3 patients with elevated baseline TNF levels, 10, 20 and 40 mg per day): reduced substantially or to below detectable limits | circulating pro-inflammatory cytokines and chemokines including MMP-9, TNFα, IL-8, and VEGF ([5]; doses as low as 5 mg/day): reduction | tumor tissue levels of COX-2, iNOS and pSTAT3 ([6]; biopsies of several patients after two cycles): pronounced reductions | tumor cell death in biopsy ([6]; several patients, after two cycles): pronounced degree of tumor cell death | comparison with radiation [7]: Me as effective as radiation | DRUG ACTIVITY, TGI (Tumor Growth Inhibition) ([7]; doses at or below the MTD): 78% TGI^1 | solubility ([8]; isopropanol/water (10:1), organic solvent or mixture, (10:1) Isopropanol/water): 4 mg/mL (≈ 7.91 mM) | solubility ([8]; organic solvent or mixture, 1,4-Dioxane): 21 mg/mL (≈ 41.5 mM) | solubility ([8]; organic solvent or mixture, ACN (acetonitrile)): 66 mg/mL (≈ 131 mM) | solubility ([8]; organic solvent or mixture, Acetone): 70 mg/mL (≈ 138 mM) | solubility ([8]; organic solvent or mixture, DCM (dichloromethane)): > 194 mg/mL | solubility ([8]; organic solvent or mixture, EtOAc (ethyl acetate)): 36 mg/mL (≈ 71.2 mM) | solubility ([8]; organic solvent or mixture, EtOH (ethanol)): 4 mg/mL (≈ 7.91 mM) | solubility ([8]; organic solvent or mixture, Hexanes): < 1 mg/mL | solubility ([8]; organic solvent or mixture, MTBE (tert-butyl methyl ether)): 4 mg/mL (≈ 7.91 mM) | solubility ([8]; organic solvent or mixture, MeOH (methanol)): 8 mg/mL (≈ 15.8 mM) | solubility ([8]; organic solvent or mixture, THF (tetrahydrofuran)): 97 mg/mL (≈ 192 mM) | solubility ([8]; organic solvent or mixture, Toluene): 38 mg/mL (≈ 75.1 mM) | solubility ([8]; Water): < 0.1 mg/mL | DRUG ACTIVITY, suppression ([9]; Delayed Treatment): 67% suppression | animals tumor-free at sacrifice ([9]; Delayed Treatment, sacrifice on Day 95): 33% of animals tumor-free at | DRUG ACTIVITY, suppression ([9]; Early Treatment, Ling et al. 2007): 100% suppression | animals tumor-free at sacrifice ([9]; Early Treatment, sacrifice on Day 85): All animals remained tumor-free | drug-related adverse events ([10]; 5 to 900 mg/day, 21 days on / 7 days rest): no significant drug-related adverse events reported | patients considered to have stable disease ([10]; after at least six cycles of treatment): Four | patients continuing to show stable disease ([10]; after four cycles of treatment): Five | tolerability ([10]; capsules of micronized Form A, 5 to 900 mg/day, 21 days on / 7 days rest, 21 adult patients): very well tolerated | evaluable patients with stable disease ([10]; first evaluation point after the second treatment cycle): approximately 75% | new metastases ([10]; patients receiving at least 40 mg per day): No new metastases developed | patients with serum creatinine significantly lower than pre-treatment baseline [11]: more than 80% | NQO1 in peripheral blood mononuclear cells [12]: Significant induction
